Assay results taken from ChEMBL document CHEMBL1201862, “PubChem BioAssay data set” (2004).
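Each compound was tested at five concentrations against cells in 96-well plates for 48 hours. The concentration for 50% growth inhibition is given as GI50.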 Calls of active or inactive are those of the source. Rule as the data show it: active = GI50 up to about 1.1 µM and inactive = higher.

Experiments:
Test in all cases: NCI tumour cell line growth inhibition, 48 h
EKVX = system: EKVX
XF498 = system: XF498
SN12C = system: SN12C
DMS-273 = system: DMS-273
SK-MEL-28 = system: SK-MEL-28
SF-268 = system: SF-268
HOP-62 = system: HOP-62
SK-MEL-5 = system: SK-MEL-5
HCC 2998 = system: HCC 2998
SF-295 = system: SF-295
HL-60 = system: HL-60
OVCAR-3 = system: OVCAR-3
HOP-18 = system: HOP-18
UO-31 = system: UO-31
Malme-3M = system: Malme-3M
U-251 = system: U-251
SNB-19 = system: SNB-19
A549 = system: A549
NCI-H460 = system: NCI-H460
HCT-116 = system: HCT-116
RPMI-8226 = system: RPMI-8226
SK-OV-3 = system: SK-OV-3
SNB-78 = system: SNB-78
NCI-H23 = system: NCI-H23
IGROV-1 = system: IGROV-1
SK-MEL-2 = system: SK-MEL-2
CAKI-1 = system: CAKI-1
CCRF-CEM = system: CCRF-CEM
KM-20L2 = system: KM-20L2
K562 = system: K562
HCT-15 = system: HCT-15
NCI/ADR-RES = system: NCI/ADR-RES
SW-620 = system: SW-620
UACC-62 = system: UACC-62
HT-29 = system: HT-29
MOLT-4 = system: MOLT-4
KM12 = system: KM12
SNB-75 = system: SNB-75
DLD-1 = system: DLD-1
OVCAR-4 = system: OVCAR-4
OVCAR-8 = system: OVCAR-8
MCF7 = system: MCF7
M19-MEL = system: M19-MEL
COLO 205 = system: COLO 205
A498 = system: A498
OVCAR-5 = system: OVCAR-5
NCI-H522 = system: NCI-H522
HOP-92 = system: HOP-92
LOX IMVI = system: LOX IMVI
SF-539 = system: SF-539
UACC-257 = system: UACC-257
NCI-H226 = system: NCI-H226
DMS-114 = system: DMS-114
RXF 393 = system: RXF 393
LXFL 529 = system: LXFL 529
ACHN = system: ACHN
SR = system: SR
786-0 = system: 786-0
TK-10 = system: TK-10
M14 = system: M14

Structure (SMILES): CN(C)CCNC(=O)c1cccc2c1C(=O)c1ccccc1C2=O
- GI50 (EKVX): 63.8 µM (inactive)
- GI50 (XF498): > 100 µM (inactive)
- GI50 (SN12C): 33.7 µM (inactive)
- GI50 (DMS-273): 23.7 µM (inactive)
- GI50 (SK-MEL-28): 45.3 µM (inactive)
- GI50 (SF-268): > 100 µM (inactive)
- GI50 (HOP-62): > 31.6 µM (inactive)
- GI50 (SK-MEL-5): 20.5 µM (inactive)
- GI50 (HCC 2998): 39.1 µM (inactive)
- GI50 (SF-295): 33.7 µM (inactive)
- GI50 (HL-60): 20.6 µM (inactive)
- GI50 (OVCAR-3): 19.3 µM (inactive)
- GI50 (HOP-18): > 100 µM (inactive)
- GI50 (UO-31): 54 µM (inactive)
- GI50 (Malme-3M): 13.1 µM (inactive)
- GI50 (U-251): 31.7 µM (inactive)
- GI50 (SNB-19): 28 µM (inactive)
- GI50 (A549): 37.2 µM (inactive)
- GI50 (NCI-H460): 29.6 µM (inactive)
- GI50 (HCT-116): 25.1 µM (inactive)
- GI50 (RPMI-8226): 50.9 µM (inactive)
- GI50 (SK-OV-3): 58.9 µM (inactive)
- GI50 (SNB-78): 24.9 µM (inactive)
- GI50 (NCI-H23): 22 µM (inactive)
- GI50 (IGROV-1): 26.4 µM (inactive)
- GI50 (SK-MEL-2): > 37.3 µM (inactive)
- GI50 (CAKI-1): 32.4 µM (inactive)
- GI50 (CCRF-CEM): 23.8 µM (inactive)
- GI50 (KM-20L2): 28 µM (inactive)
- GI50 (K562): 19.1 µM (inactive)
- GI50 (HCT-15): 30.7 µM
- GI50 (NCI/ADR-RES): 27.4 µM (inactive)
- GI50 (SW-620): 28.9 µM (inactive)
- GI50 (UACC-62): 21.4 µM (inactive)
- GI50 (HT-29): 26.2 µM (inactive)
- GI50 (MOLT-4): 20.5 µM (inactive)
- GI50 (KM12): > 58.1 µM (inactive)
- GI50 (SNB-75): > 100 µM (inactive)
- GI50 (DLD-1): 25.5 µM (inactive)
- GI50 (OVCAR-4): 28.2 µM (inactive)
- GI50 (OVCAR-8): 29.4 µM (inactive)
- GI50 (MCF7): 16.2 µM (inactive)
- GI50 (M19-MEL): 20 µM (inactive)
- GI50 (COLO 205): 16 µM (inactive)
- GI50 (A498): > 100 µM (inactive)
- GI50 (OVCAR-5): 61.5 µM (inactive)
- GI50 (NCI-H522): 25.1 µM (inactive)
- GI50 (HOP-92): 23.8 µM (inactive)
- GI50 (LOX IMVI): 25.6 µM (inactive)
- GI50 (SF-539): 40.6 µM (inactive)
- GI50 (UACC-257): 19.5 µM (inactive)
- GI50 (NCI-H226): > 94 µM (inactive)
- GI50 (DMS-114): 15.7 µM (inactive)
- GI50 (RXF 393): 55 µM (inactive)

Structure (SMILES): COc1ccc(C2C(Cl)C(=O)N2NC(=O)Cc2ccccc2)cc1 (stereo not drawn)
- GI50 (LXFL 529): > 100 µM (inactive)
- GI50 (EKVX): > 100 µM (inactive)
- GI50 (XF498): > 100 µM (inactive)
- GI50 (SN12C): > 100 µM (inactive)
- GI50 (DMS-273): > 100 µM (inactive)
- GI50 (ACHN): > 100 µM (inactive)
- GI50 (SK-MEL-28): > 100 µM (inactive)
- GI50 (SF-268): > 100 µM (inactive)
- GI50 (HOP-62): > 100 µM (inactive)
- GI50 (SK-MEL-5): > 100 µM (inactive)
- GI50 (SR): > 100 µM (inactive)
- GI50 (HCC 2998): > 100 µM (inactive)
- GI50 (SF-295): > 100 µM (inactive)
- GI50 (HL-60): > 100 µM (inactive)
- GI50 (OVCAR-3): > 100 µM (inactive)
- GI50 (HOP-18): > 100 µM (inactive)
- GI50 (UO-31): > 100 µM (inactive)
- GI50 (Malme-3M): > 100 µM (inactive)
- GI50 (786-0): > 100 µM (inactive)
- GI50 (U-251): > 100 µM (inactive)
- GI50 (SNB-19): > 100 µM (inactive)
- GI50 (A549): > 100 µM (inactive)
- GI50 (NCI-H460): > 100 µM (inactive)
- GI50 (HCT-116): > 100 µM (inactive)
- GI50 (RPMI-8226): > 100 µM (inactive)
- GI50 (SK-OV-3): > 100 µM (inactive)
- GI50 (SNB-78): > 100 µM (inactive)
- GI50 (NCI-H23): > 100 µM (inactive)
- GI50 (IGROV-1): > 100 µM (inactive)
- GI50 (SK-MEL-2): > 100 µM (inactive)
- GI50 (CAKI-1): > 100 µM (inactive)
- GI50 (CCRF-CEM): > 100 µM (inactive)
- GI50 (KM-20L2): > 100 µM (inactive)
- GI50 (K562): > 100 µM (inactive)
- GI50 (TK-10): > 100 µM (inactive)
- GI50 (HCT-15): > 100 µM
- GI50 (SW-620): > 100 µM (inactive)
- GI50 (UACC-62): > 100 µM (inactive)
- GI50 (HT-29): > 100 µM (inactive)
- GI50 (M14): > 100 µM (inactive)
- GI50 (MOLT-4): > 100 µM (inactive)
- GI50 (KM12): > 100 µM (inactive)
- GI50 (SNB-75): > 100 µM (inactive)
- GI50 (DLD-1): > 100 µM (inactive)
- GI50 (OVCAR-4): > 100 µM (inactive)
- GI50 (OVCAR-8): > 100 µM (inactive)
- GI50 (M19-MEL): > 100 µM (inactive)
- GI50 (COLO 205): > 100 µM (inactive)
- GI50 (OVCAR-5): > 100 µM (inactive)
- GI50 (NCI-H522): > 100 µM (inactive)
- GI50 (LOX IMVI): > 100 µM (inactive)
- GI50 (UACC-257): > 100 µM (inactive)
- GI50 (NCI-H226): > 100 µM (inactive)
- GI50 (RXF 393): > 100 µM (inactive)
